# Measured values as given in patent US20240368727A1, “METHOD OF SELECTIVE PRECIPITATION OF METALS USING AMIDE COMPOUNDS” (The University Court of the University of Edinburgh, priority 2021, published 2024).
# Tests used:
# [1] = Selective precipitation from waste printed circuit boards (Table 3): Cu; conditions: 20% aqua regia solution from waste printed circuit boards; 0.02 mmol L, 1 hour
# Experimental: (§1) End-of-life printed circuit boards were supplied by Edinburgh School of Chemistry workshop. Gold-tipped sections of the circuit boards (22.85 g) were cut off and soaked in 100 mL aqua regia for 24 hours. This solution was then diluted with deionised water to 250 mL and the metal content analysed by ICP-OES.
# (§2) An aliquot of the e-waste solution (2 mL) was stirred with L (0.0059 g, 0.02 mmol, excess with respect to the gold concentration) for 1 hour at room temperature after which the stir bar was removed and the vial centrifuged. The supernatant was decanted and samples prepared for ICP-OES analysis to measure the uptake of metal. Samples were diluted by 1000× and 20× in 2% nitric acid prior to ICP-OES analysis. This procedure was repeated in triplicate.
# [2] = Selective precipitation from waste printed circuit boards (Table 3): Sn; conditions: 20% aqua regia solution from waste printed circuit boards; 0.02 mmol L, 1 hour
# Experimental: as §1, §2
# [3] = Precipitation of Au by L from various aqueous matrices (Table 1); conditions: 0.059 g L, 1 hour, room temperature
# Experimental: Conditions: 2 mL Au solution contacted with 0.059 g L for 1 hour, room temperature. Solution filtered and diluted 100× in 2% HNO3 prior to ICP-OES analysis. *HAuCl4 used. **Au^0 added to sulfuric acid solution with a few drops of 30% hydrogen peroxide added to aid dissolution of Au. All solutions were diluted 100× prior to ICP-OES analysis.
# [4] = Precipitation from 0.01 M mixed-metal solution in HCl (FIG. 2): Pt; conditions: excess L, 0.01 M mixed-metal solution in 6 M HCl
# Experimental: (§3) Hydrochloric acid solutions (2 M and 6 M) were prepared by dilution of concentrated hydrochloric acid with deionised water. Mixed-metal solutions (0.01 M) were typically prepared by dilution of 0.1 M stock solutions of each individual metal salt solution in 2 or 6 M HCl.
# (§4) Solid compound L (0.2 mmol or 0.02 mmol) was added to a vial with a magnetic stir bar and the metal-containing aqueous solution (2 mL) added. The mixture was stirred for 1 hour at room temperature (20° C.) at 500 rpm after which the stir bar was removed and the vial centrifuged. The supernatant was decanted and samples prepared for ICP-OES analysis to measure the uptake of metal by L. Samples were diluted by 100× in 2% nitric acid prior to ICP-OES analysis. This procedure was repeated in triplicate.
# (§5) FIG. 2 is a graph showing percentage metal(s) removed by precipitation from a 0.01 M mixed-metal solution in 2 M or 6 M HCl following the addition of either 0.2 mmol of compound L (10-fold excess L relative to metal) or 0.02 mmol of L (equimolar).
# [5] = Selective precipitation from waste printed circuit boards (Table 3): Ni; conditions: 20% aqua regia solution from waste printed circuit boards; 0.02 mmol L, 1 hour
# Experimental: as §1, §2
# [6] = Precipitation from multi-element ICP standard solutions (FIG. 4, FIG. 25): Fe; conditions: 6 M HCl multi-element solution (100 mg L^−1 Fe), excess compound, 24 hours, RT
# Experimental: (§6) The following ICP multi-element standard solutions were used: Transition metal mix 3 for ICP supplied by Sigma Aldrich comprising 100 mg L^−1 Au, Ir, Os, Pd, Pt, Rh, Ru in 10% hydrochloric acid and ICP multi-element standard solution IV comprising 1000 mg L^−1 Ag, Al, B, Ba, Bi, Ca, Cd, Co, Cr, Cu, Fe, Ga, In, K, Li, Mg, Mn, Na, Ni, Pb, Sr, Tl, Zn in dilute nitric acid.
# (§7) Each solution (1 mL) was diluted to 10 mL using either 2 M HCl or 6 M HCl, resulting in solutions of 10 ppm Au, Ir, Os, Pd, Pt, Rh, Ru and 100 mg L^−Al, B, Ba, Bi, Ca, Cd, Co, Cr, Cu, Fe, Ga, In, K, Li, Mg, Mn, Na, Ni, Pb, Sr, Tl, Zn. The solutions were filtered prior to use in precipitation experiments due to the precipitation of silver chloride, which was subsequently excluded from ICP-OES analysis. The precipitation method used for the 0.01 M mixed-metal solutions was followed.
# (§8) FIGS. 25(a)-(c) show alternative embodiments of the compounds that were tested. Conditions were: 0.2 mmol of compound contacted with a 2 M or 6 M HCl multi element solution for 24 hours, RT.
# (§9) The solution comprised: • 10 mg L^−1 Au, Ir, Os, Pd, Pt, Rh, Ru; and • 100 mg L^−1 Al, B, Ba, Bi, Ca, Cd, Co, Cr, Cu, Fe, Ga, In, K, Li, Mg, Mn, Na, Ni, Pb, Sr, Tl, Zn/
# [7] = Gold precipitation from HAuCl4 solutions versus acid concentration and temperature (FIGS. 7-9)
# [8] = Precipitation from 0.01 M mixed-metal solution in HCl (FIG. 2): other metals; conditions: 0.2 mmol solid L (10-fold excess), 0.01 M mixed-metal solution in 2 M HCl
# Experimental: as §3, §4, §5
# [9] = Selective precipitation from waste printed circuit boards (Table 3): Au; conditions: 20% aqua regia solution from waste printed circuit boards; 0.02 mmol L, 1 hour
# Experimental: as §1, §2
# [10] = Precipitation from 0.01 M mixed-metal solution in HCl (FIG. 2): Fe; conditions: excess L, 0.01 M mixed-metal solution in 6 M HCl
# Experimental: as §3, §4, §5
# [11] = Precipitation from multi-element ICP standard solutions (FIG. 4): Pt; conditions: multi-element ICP standard solutions in HCl, Pt present as Pt(II), excess L
# Experimental: as §6, §7
# [12] = Precipitation from 0.01 M mixed-metal solution in HCl (FIG. 2): Au
# Experimental: as §3, §4, §5
# [13] = Precipitation from multi-element ICP standard solutions (FIG. 4, FIG. 25): Ga; conditions: 6 M HCl multi-element solution (100 mg L^−1 Ga), excess compound, 24 hours, RT
# Experimental: as §6, §7, §8, §9
# [14] = Precipitation from multi-element ICP standard solutions (FIG. 4, FIG. 25): Au; conditions: excess compound, 24 hours, RT
# Experimental: as §6, §7, §8, §9
# [15] = Precipitation of HAuCl4 by L from 2 M HCl (Table 2); conditions: 0.01M HAuCl4 in 2M HCl after contact with L
# Experimental: Table 2 below describes precipitation of HAuCl4 by L from 2 M HCl followed by its release from L as HAuCl4 using deionised water. All solutions were diluted 100× prior to ICP-OES analysis.
# [16] = Precipitation from 0.01 M mixed-metal solution of precious metals in 6 M HCl (FIG. 10); conditions: 0.01 M precious metals in 6 M HCl
# Experimental: FIG. 10 Graph showing percentage metal(s) removed by precipitation from a 0.01 M mixed-metal solution of precious metals in 6 M HCl following the addition of either 0.2 mmol of compound L (10-fold excess L relative to metal) or 0.02 mmol of L (equimolar);
# as §3, §4
# Referring to FIG. 10, there is shown a graph depicting percentage metal(s) removed by precipitation from a 0.01 M mixed-metal solution of precious metals in 6 M HCl following the addition of either 0.2 mmol of compound L (10-fold excess L relative to metal) or 0.02 mmol of L (equimolar).
# [17] = Precipitation from 0.01 M mixed-metal solution in HCl (FIG. 2): Sn; conditions: excess L, 0.01 M mixed-metal solution in 6 M HCl
# Experimental: as §3, §4, §5
# [18] = Selective precipitation from waste printed circuit boards (Table 3): Pb; conditions: 20% aqua regia solution from waste printed circuit boards; 0.02 mmol L, 1 hour
# Experimental: as §1, §2
# [19] = Selective stripping with H-tube apparatus (FIG. 3)
# Experimental: Solid L (0.2 mmol) was added to one side of the H-tube with a stir bar. The metal-containing aqueous solution (2 mL) was then added to the solids and the mixture stirred for 1 hour at room temperature at 500 rpm, after which it was passed through the glass frit of the H-tube with the aid of compressed air or N2 gas. The filtrate was collected for ICP-OES analysis to determine metal uptake. The solids were subsequently washed with 2 M HCl (3×2 mL) for 30 mins, with each 2 mL solution being passed through the glass frit of the H-tube. The solids were then washed with ultrapure deionised water (5×2 mL) in the same manner. The use of a H-tube allows for all solids to be retained in the same vessel to minimise any loss of metal due to material transfer. This procedure was repeated in duplicate.
# (a) orange bars: Percentage metal removed by precipitation from a 0.01 M mixed-metal solution in 6 M HCl.
# (b) green bars: percentage of metal stripped from the precipitate by a 2 M HCl wash.
# (c) blue bars: percentage of metal stripped from the precipitate after a subsequent wash with DI water.
# [20] = Quantitative NMR solubility experiments; format: physicochemical
# Experimental: ^1H NMR spectra were recorded on a Bruker Avance III 400 MHz spectrometer. 2 M and 6 M HCl solutions were diluted from concentrated HCl in D2O. A 0.1 M solution of L in 2 M or 6 M HCl was prepared by adding L (0.0178 g) to an NMR tube along with the relevant HCl/D2O solution (0.55 mL) and 1 M tert-butanol in D2O (0.05 mL) as an internal standard. Any undissolved solids were allowed to settle to the bottom of the NMR tube before acquiring ^1H NMR spectra.
# ^1H NMR spectra were acquired for 2 M HCl solutions between 300-350 K in 10 K increments and for 6 M HCl solutions between 300-330 K in 10 K increments; attempts to acquire additional spectra beyond 330 K for these latter samples were unsuccessful due to excessive line broadening of the spectra and difficulties with sample locking.
# [21] = Precipitation from multi-element ICP standard solutions (FIG. 4, FIG. 25): Tl; conditions: excess compound, 24 hours, RT
# Experimental: as §6, §7, §8, §9
compound,measurement,setting,value
CN(CCN(C)C(=O)c1ccccc1)C(=O)c1ccccc1 [L],"% metal precipitated, Cu",[1],0%
same,"% metal precipitated, Sn",[2],0%
same,% Precipitated,"[3]; 2 mol L^−1 H2SO4 and 2M NaBr, Au^0 with H2O2, initial Au 1930 mg L^−1",99.5%
same,% Precipitated,"[3]; 2 mol L^−1 H2SO4 and 2M NaCl, Au^0 with H2O2, initial Au 1940 mg L^−1",99.4%
same,% Precipitated,"[3]; 20% Aqua regia, HAuCl4 used, initial Au 1920 mg L^−1",99.8%
same,% Precipitated,"[3]; 100% Aqua regia, HAuCl4 used, initial Au 1920 mg L^−1",99.7%
same,uptake of Pt,[4],complete uptake
same,"% metal precipitated, Ni",[5],0%
same,% uptake / precipitation of Fe,[6],70%
same,quantity of [HL][AuCl4] precipitated over 5 minutes on raising temperature,"[7]; 2 M HCl, from 20 to 40° C. and from 40 to 80° C.",doubles
same,precipitation of [HL][AuCl4] on addition of HAuCl4,[7]; solution of L in 12 M HCl,rapid and wholesale precipitation
same,co-precipitation of other metals,[8],< 5%
same,"% metal precipitated, Au",[9],98.1%
same,uptake of Fe,[10],complete uptake
same,Pt uptake,[11],no Pt uptake
same,removal of Au by precipitation,"[12]; 0.2 mmol solid L (10-fold excess), 0.01 M each of Au, Al, Cu, Ni, Fe, Zn, Pt, Pd, Sn in 2 M HCl",near quantitative removal of Au
same,uptake of Au,"[12]; excess L, 0.01 M mixed-metal solution in 6 M HCl",complete uptake
same,metal uptake (selectivity),"[12]; stoichiometric L (0.02 mmol), 0.01 M mixed-metal solution in 2 M HCl",gold uptake only
same,metal uptake (selectivity),"[12]; stoichiometric L, 0.01 M mixed-metal solution in 6 M HCl",selective gold uptake
same,% uptake / precipitation of Ga,[13],> 99%
same,% uptake / precipitation of Au,[14]; 2 M HCl multi-element solution (10 mg L^−1 Au),70%
same,% uptake / precipitation of Au,[14]; 6 M HCl multi-element solution (10 mg L^−1 Au),> 99%
same,% Precipitation,[15],99.6%
same,metal(s) removed by precipitation (selectivity),[16]; equimolar L (0.02 mmol),selective precipitation of gold over other precious metals
same,metal(s) removed by precipitation (selectivity),"[16]; excess L (0.2 mmol, 10-fold)",selective co-precipitation of gold and platinum
same,uptake of Sn,[17],complete uptake
same,"% metal precipitated, Pb",[18],0%
same,metal stripped from the precipitate by a 2 M HCl wash,"[19]; L loaded with Au, Fe, Pt and Sn at 6 M HCl, then wash with 2 M HCl","dissolution of Fe, Sn and Pt only, with Au retained on the solids"
same,metal stripped from the precipitate by subsequent wash with DI water,"[19]; isolated solids after the 2 M HCl wash, washed with DI water",releases the Au into solution
same,concentration of dissolved L,"[20]; 2 M HCl, heated to 350 K",100 µM
same,Dissolution of L (concentration of dissolved L),"[20]; 2 M HCl, quantitative 1H NMR",0.02 mM
same,concentration of dissolved L,"[20]; 6 M HCl, 300 K",320 µM
same,increase in dissolved L on increasing HCl from 2 M to 6 M,[20]; 300 K,16 fold
same,% uptake / precipitation of Tl,[21]; 2 M HCl multi-element solution (100 mg L^−1 Tl),10%
same,% uptake / precipitation of Tl,[21]; 6 M HCl multi-element solution (100 mg L^−1 Tl),95%
